Article PMC7235863, “Benzamide Derivatives Targeting the Cell Division Protein FtsZ: Modifications of the Linker and the Benzodioxane Scaffold and Their Effects on Antimicrobial Activity” (Antibiotics, 2020)
In brackets after ≈: the same amount, converted by molar mass. Where two headings read alike, the source gives them in different places.

Assays:
[1] = test system: E. coli N43; assay: Broth microdilution MIC, efflux-defective E. coli N43; type: cell-based, Escherichia coli
Protocol: (§1) We thus tested 1–8 and III initially on the reference sensitive E. coli ATCC 25922 and on the extended-spectrum of beta-lactamase-positive (ESBL) E. coli, as Gram-negative bacteria. Moreover, in order to evaluate the susceptibility of this series of compounds to the efflux pump AcrAB, we employed also the above-mentioned E. coli N43, which is the knockout of the AcrAB cell membrane pump.
(§2) Antibacterial activities of compounds were determined by the broth microdilution method against MDRSA 11.7, MDRSA 12.1 and E. coli N43 following the European Committee on Antimicrobial Susceptibility Testing (EUCAST) recommendations and Clinical and Laboratory Standards Institute (CLSI) guidelines. Strains MDRSA ST-11.7 and ST-12.1 were obtained through the interlaboratory control organized by the EU Reference Laboratory—Antimicrobial Resistance. Only data on their resistance to antibiotics are known, but other data are not available.
(§3) Bacterial suspension of specific bacterial strain equivalent to 0.5 McFarland turbidity standard was diluted with cation-adjusted Mueller Hinton broth with TES (Thermo Fisher Scientific), to obtain a final inoculum of 10^5 CFU/mL. Compounds dissolved in DMSO and inoculum were mixed together and incubated for 20 h at 37 °C. After incubation, the minimal inhibitory concentration (MIC) values were determined by visual inspection as the lowest dilution of compounds showing no turbidity. Tetracycline was used as a positive control on every assay plate.

[2] = test system: MDRSA 11.7; assay: Broth microdilution MIC, MDRSA 11.7; type: cell-based, Staphylococcus aureus
Protocol: (§4) Antimicrobial activity of 1–8 was evaluated on both Gram-positive (Table 3) and Gram-negative (Table 4) species. As a continuation of our previous studies, considering the Gram-positive S. aureus, we chose a methicillin-sensitive S. aureus (MSSA, ATCC 29213), a methicillin-resistant S. aureus (MRSA, ATCC 43300) and two clinical isolates of S. aureus showing multi-drug resistance (MDRSA).
as §2, §3

[3] = test system: MDRSA 12.1; assay: Broth microdilution MIC, MDRSA 12.1; type: cell-based, Staphylococcus aureus
Protocol: as §4, §2, §3

[4] = test system: E. coli ATCC 25922; assay: MIC on reference sensitive E. coli; type: cell-based, Escherichia coli
Description: as §1

[5] = test system: MSSA ATCC 29213; assay: MIC/MBC determination in LB broth, MSSA; type: cell-based, Staphylococcus aureus; conditions: for MBC/MIC / MBC / MIC: MSSA ATCC 29213
Protocol: (§5) Normal human lung fibroblasts (MRC-5) were grown in Dulbecco’s modified Eagle’s medium (DMEM) supplemented with 10% calf serum, 100 U/mL penicillin and […] streptomycin in an incubator at 5% CO2 atmosphere and 37 °C. The Gram-positive Staphylococcus aureus (methicillin-sensitive, MSSA ATCC 29213, and methicillin-resistant, MRSA ATCC 43300) and the Gram-negative Escherichia coli (ESBL, extended-spectrum beta-lactamase-positive) bacterial cells were grown in Luria-Bertani broth (LB) at 37 °C under constant shaking at 300 rpm.
(§6) The antibacterial activity was tested on both a methicillin-sensitive and a methicillin-resistant S. aureus strain, and an ESBL E. coli clinical isolate. All the compounds were dissolved at the final concentration of 20 mg/mL in dimethyl sulfoxide (DMSO) and serially diluted in LB. Fresh cell cultures were used at 10^5 cells/mL in a final volume of 2 mL. Each bacterial sample was grown with different compound concentrations that ranged from 100 to 0.1 μg/mL. […] To determine the MBC, the bacteria were then washed three times with LB, centrifuged at 900× g for 10 min at 4 °C, and the pellet resuspended in fresh LB. After overnight incubation at 37 °C, the absence of growth was confirmed by OD measurement. The presence of antibacterial activity, at any concentration tested, was established for values of absorbance < 0.1 OD600. All tests were performed in quadruplicate and for each series of experiments, both positive (no compounds) and negative (no bacteria) controls were included.

[6] = test system: MRSA ATCC 43300; assay: MIC/MBC determination in LB broth, MRSA; type: cell-based, Staphylococcus aureus
Protocol: as §5, §6

[7] = test system: ESBL E. coli; assay: MIC in LB broth, ESBL E. coli clinical isolate; type: cell-based, Escherichia coli
Protocol: as §1, §5, §6

[8] = test system: S. aureus ATCC 43300; assay: Transmission electron microscopy of septum formation; type: cell-based, Staphylococcus aureus; conditions: MRSA cultured overnight; 1 at 1 μg/mL, DFNB at 0.25 μg/mL
Description: After having assessed the antimicrobial profile of this class of derivatives, we chose 1 to be further analyzed by transmission electron microscopy (TEM), in order to evaluate any morphological changes in septum formation, as done before as a simple FtsZ target validation assay. We cultured S. aureus ATCC 43300 alone or in the presence of 1 and 2,6-difluorononyloxybenzamide (DFNB) as a reference FtsZ inhibitor (positive control). […] These are the typical effects of the inhibition of FtsZ assembly and consequently of the block of bacterial cell division.
S. aureus ATCC 43300 (10^9 cells/mL) were cultured in the presence of 1 and DFNB (positive control), at the same concentrations used for optical microscopy and, after 16 h incubation at 37 °C, the cells were harvested and processed for transmission electron microscopy, as already described. Untreated S. aureus was used as negative control. After centrifugation at 3100× g for 5 min at room temperature, pelleted bacteria were fixed in 2.5% glutaraldehyde (Polysciences, Warrington, PA) in 0.1 M Na cacodylate buffer, pH 7.4, for 1 h at 4 °C, rinsed twice and post-fixed in Na cacodylate-buffered 1% OsO4 for 1 h at 4 °C. The samples were dehydrated through a series of graded ethanol solutions and propylene oxide and embedded in Poly/Bed 812 resin mixture. […]

[9] = test system: MRC-5 cells; assay: MTT cytotoxicity assay; type: cell-based, human; conditions: MRC-5, concentration reducing cell viability by 90%, 24-h incubation
Protocol: The compounds showing the most promising activities vs. MRSA were also assessed for their cytotoxicity on human MRC-5 cells. TD90, the concentration (µg/mL) able to reduce by 90% the viability of these cells, was determined together with the therapeutic index (TI), expressed as the ratio between TD90 and MBC values.
as §5
Compounds showing an antibacterial activity at a concentration lower than 10 μg/mL were serially diluted in DMEM and tested on MRC-5 cells by the MTT cytotoxicity assay (Sigma, St Louis, MO, USA). Cells (10^4 cells/well) were tested in a 96-well plate, in quadruplicate, using serially two-fold-diluted concentrations of the compound in 100 μL DMEM medium. After a 24-h incubation, the compound was removed, and the cells were overlaid with 1 mg/mL MTT in 100 μL serum-free DMEM for 3 h at 37 °C. The MTT solution was then replaced with DMSO for 10 min, and the absorbance was measured at 570 nm. The percentage of cytotoxicity was calculated by the formula [100 − (sample OD/untreated cells OD) × 100]. The compound concentration reducing cell viability by 90% was defined as the TD90 cytotoxic dose. The “therapeutic index” (TI) was also determined and defined as the ratio between TD90 and the MBC values.

[10] = test system: E. coli AcrAB–; conditions: ref 10 (Z2, Z3), 11 (TXY436), 12 (I, II); cited from earlier work
[11] = test system: ESBL E. coli; parameters: method as in PMID 31750973; conditions: in-house reference compounds ref 12; cited from earlier work
[12] = test system: E. coli N43; parameters: method as in PMID 31750973; conditions: E. coli N43 (AcrAB knockout); in-house reference compounds ref 12; cited from earlier work
[13] = test system: Sa cells; parameters: method as in PMID 31750973; conditions: Sa cells incubated with the compounds ref 12; cited from earlier work
[14] = test system: Methicillin Sensitive S. aureus; conditions: Methicillin Sensitive S. aureus; ref 10 (Z2, Z3), 11 (TXY436), 12 (I, II); cited from earlier work
[15] = test system: E. coli ATCC 25922; parameters: method as in PMID 31750973; conditions: in-house reference compounds ref 12; cited from earlier work
[16] = Staphylococcus aureus, read-out: MIC
[17] = Staphylococcus aureus, read-out: MBC
[18] = Escherichia coli, read-out: MIC

Compound	MIC ([1]; Escherichia coli, N43)	MIC [2, 16]	MIC [3, 16]	MIC ([4]; Escherichia coli, ATCC25922)	MBC/MIC [5]	MBC [5, 17]	MIC [5, 16]	MBC/MIC [6]	MBC [6, 17]	MIC [6, 16]	MIC [7, 18]	further results
NC(=O)c1c(F)ccc(OCCC2CSc3ccccc3O2)c1F (centres unmarked) [Compound 6]	> 128 µg/mL	8 µg/mL (≈ 22.8 µM)	4 µg/mL (≈ 11.4 µM)	> 100 µg/mL	2	5 µg/mL (≈ 14.2 µM)	2.5 µg/mL (≈ 7.11 µM)	2	5 µg/mL (≈ 14.2 µM)	2.5 µg/mL (≈ 7.11 µM)	> 100 µg/mL	
NC(=O)c1c(F)ccc(OCC2COc3ccccc3O2)c1F (centres unmarked) [III, reference compound]	> 128 µg/mL	16 µg/mL (≈ 49.8 µM)	8 µg/mL (≈ 24.9 µM)	> 100 µg/mL	16	80 µg/mL (≈ 249 µM)	5 µg/mL (≈ 15.6 µM)	16	80 µg/mL (≈ 249 µM)	5 µg/mL (≈ 15.6 µM)	> 100 µg/mL	MBC/MIC ratios ([5]; S. aureus, as summarised in the text from Table 3): 16
CCCCCCCCCOc1ccc(F)c(C(N)=O)c1F [DFNB, 2,6-difluorononyloxybenzamide, reference compound]												Morphological changes in septum formation (TEM) [8]: strong alterations in the septum formation and bacterial desegregation
3-(1,4-benzoxathiane-3-yl)-2,6-difluorobenzamide [Compound 3]					1			1				MIC ([1]; E. coli N43 (AcrAB knockout)): 128 µg/mL; MIC [2]: 32 µg/mL; MIC [3]: 32 µg/mL; MIC ([4]; E. coli ATCC 25922): >100 µg/mL; MBC [5]: 20 µg/mL; MIC [5]: 20 µg/mL; MBC [6]: 20 µg/mL; MIC [6]: 20 µg/mL; MIC [7]: >100 µg/mL; TD90 [9]: 200 µg/mL
Cc1nc(-c2ccc3c(c2)OC(COc2ccc(F)c(C(N)=O)c2F)CO3)no1 (centres unmarked) [II]												MIC [10]: 16 µg/mL (≈ 39.7 µM); MIC [11]: >100 µg/mL; MIC [12]: 16 µg/mL (≈ 39.7 µM); Morphometric analysis by TEM [13]: significant elongation in cellular dimension, bacterial swelling and cell desegregation; MIC [14]: 0.6 µg/mL (≈ 1.49 µM); MIC [15]: >100 µg/mL
NC(=O)c1c(F)ccc(OCCCC2COc3ccccc3O2)c1F (centres unmarked) [Compound 8]	> 128 µg/mL	32 µg/mL (≈ 91.6 µM)	16 µg/mL (≈ 45.8 µM)	> 100 µg/mL	10	100 µg/mL (≈ 286 µM)	10 µg/mL (≈ 28.6 µM)	10	100 µg/mL (≈ 286 µM)	10 µg/mL (≈ 28.6 µM)	> 100 µg/mL	
NC(=O)c1c(F)ccc(OCC2CS(=O)(=O)c3ccccc3O2)c1F (centres unmarked) [Compound 2]				> 100 µg/mL		> 100 µg/mL	> 100 µg/mL		> 100 µg/mL	> 100 µg/mL	> 100 µg/mL	
